Experimental findings from US20220098197A1, “SALTS OF HETEROCYCLIC COMPOUND AND USE THEREOF” (priority 2019, published 2022) are described below.

Each structure is given as a SMILES string.

The nature of series [1]: Stability test (influencing factors: light, high temperature, high humidity). Format: physicochemical. As to the method: Test process: An appropriate amount of each test sample was placed on a clean watch glass without a lid and then placed under the conditions of light 4500 lx±500 lx, high temperature of 60° C., high humidity of 92.5% RH for 5 days and 10 days, respectively. The properties and related substances were determined and the results were compared with the results at day 0 to observe the stability.
The test method for related substances was as follows.
Preparation of test sample solution: About 10 mg of each test sample was placed in a 10 ml volumetric flask, and 50% acetonitrile aqueous solution was added to dissolve sample, and diluted to the mark, shaken well, and filtered to obtain the test sample solution. A precise amount of 10 μl of the test sample solution was taken and injected according to the above chromatographic method, and the maximum single impurity and total impurity were calculated according to the area normalization method.

Another series concerns CS-induced ALI mice. The series can be described thus: CS-induced lung injury model: lung weight ratio (coefficient). In kind it is in vivo, Balb/c mice. The following applies: CT-NA 10 and 30 mg/kg intragastric; CS exposure; p<0.05. As to the method: Model preparation: The mice were randomly divided into 5 groups (12 mice in each group), which were the control group (the mice were exposed to fresh air), the saline group (the mice were exposed to cigarette smoke), dexamethasone (Dex) group (1 mg/kg) (the mice were exposed to cigarette smoke), CT-NA 10 mg/kg group and CT-NA 30 mg/kg group (the mice were exposed to cigarette smoke). According to the grouping, the mice were intragastrically administered saline, Dex and CT-NA, respectively. Thereafter, the mice were exposed to fresh air or cigarette smoke generated from 3R4F research-grade cigarettes (containing about 600 mg TPM/m^3 and 29.9 mg nicotine/m^3) in a cuboid plastic box (65×50x×45 cm). Ten cigarettes were burned every day for seven days. After one cigarette was burned, the next cigarette was ignited. […] 24 hrs after the last exposure to the cigarette smoke, the partial pressure of oxygen (PO2) of all mice was measured by the Moor VMS-OXY™ measuring instrument, which was used to measure the oxygenated/deoxygenated hemoglobin concentration and oxygen saturation (percentage) in the microcirculation at the wavelength range of 500 to 650 nm. […] As an index of pulmonary edema, the lung weight ratio was measured by dividing the individual lung weight of each mouse after aspirating the blood tissue from the lung surface, by the total body weight.

The next series relates to LPS-induced ALI mice. The experiment in a line: LPS-induced ALI model: lung weight coefficient. Conditions: CT-NA 10 or 30 mg/kg (P<0.01, dose-dependent), Dex 1 mg/kg; 24 hrs after LPS. In kind it is in vivo, Balb/c mice. Here is the method: Specific pathogen-free (SPF) Balb/c mice (♂/♀; 20-26 g; 8 weeks old) were purchased from Shanghai SIPPR-BK Experimental Animal Co., Ltd. Mice were kept in an isolated ventilated cage in an environment of 40-60% humidity, 24±2° C., and 12 hrs/12 hrs dark-light cycle, and had free access to food and water. The method for preparing the LPS-induced ALI model was simply described as follows. The mice were randomly divided into a control group (12 mice) and an LPS group (48 mice). The LPS group (48 mice) was further divided into four subgroups (12 mice in each subgroup). […] 24 hrs after LPS challenge, the oxygen saturation (SO2) of all mice was measured by a Moor VMS-OXY™ instrument which measured SO2 (%) in the microcirculation at the wavelength range of 500 to 650 nm. […]
The mice were euthanized to expose the trachea, and then the right lungs were lavaged three times with 0.4 mL/time of sterile normal saline containing bovine serum albumin (BSA) and 5000 IU/L heparin to collect the BALF via tracheal tube. […] The removed lung tissues were weighted after aspirating the surface blood, and the lung weight coefficient was calculated. The lung weight coefficient was an indicator of pulmonary edema, and it was measured by dividing the individual lung weight of each mouse by its total body weight.

[2] abbreviates: high temperature 60° C., Day 10.
[3] abbreviates: light condition 4500 lx±500 lx, Day 5.
[4] abbreviates: light condition 4500 lx±500 lx, Day 10.

`CN([C@@H]1CCc2c(CC(=O)[O-])c3cccnc3n2C1)S(=O)(=O)c1ccc(F)cc1.[Na+]` [Sodium salt hydrate]: the “stability under high temperature and high humidity conditions (in words)” value in series [1] (60° C., 92.5% RH, 5 and 10 days) was “relatively stable”. The “maximum single impurity %” value in series [1] (Day 0) is on record as 0.03%; in series [1] (high humidity 92.5% RH, Day 5) it was 0.02%; in series [1] (high humidity 92.5% RH, Day 10), 0.02%; in series [1] (high temperature 60° C., Day 5), 0.02%; in series [1] (setting [2]), 0.02%; in series [1] (setting [3]), 0.06%. The “maximum single impurity %” value in series [1] (setting [4]) came out at 0.15%. Further, the property result is “white powder” in series [1] (Day 0); “white powder” in series [1] (high humidity 92.5% RH, Day 5); “white powder” in series [1] (high humidity 92.5% RH, Day 10); “white powder” in series [1] (high temperature 60° C., Day 5); “white powder” in series [1] (setting [2]); “light yellow powder” in series [1] (setting [3]). For the same molecule, the property result in series [1] (setting [4]) was “light yellow powder”. Besides, the total impurity % in series [1] (Day 0) was found to be 0.07%; in series [1] (high humidity 92.5% RH, Day 5), 0.07%; in series [1] (high humidity 92.5% RH, Day 10) it was 0.06%; in series [1] (high temperature 60° C., Day 5) it was 0.07%; in series [1] (setting [2]), 0.09%; in series [1] (setting [3]), 0.16%. Also, the total impurity % in series [1] (setting [4]) was found to be 0.26%. Besides, the lung weight coefficient entry in the series on CS-induced ALI mice was “partially reduced”. In addition, the “lung wet weight coefficient” value in the series with LPS-induced ALI mice is given as “notably reduced”.
